Reference: patent publication US20120101230A1, “HIGH-DENSITY POLYMER SURFACE COATING TO IMMOBILIZE CHEMICAL OR BIOLOGICAL MOLECULES” (priority 2009, published 2012)
Structures can show the parent of a compound that is named as a salt.

Experiments:
[1] = Bulk or NSB PWV shift in no trypsin control wells; settings: 88 μM leupeptin, no trypsin immobilization
Method: (§1) Antipain was then added for binding to the low COOH density surfaces. 49.2, 12.3, 3.1, and 1 μM antipain dihydrochloride in PBS was prepared from a microbial source and was added to the 3.8 nm delta PWV shift from trypsin immobilization. 49.2 μM antipain was also added to no trypsin control wells (N=4). […] The theoretical shift of antipain of 1:1 binding on 3.8 nm delta PWV shift trypsin surface is […]. The control, 49.2 μM antipain in a well with no trypsin immobilization, had […] bulk or NSB PWV shift.
(§2) Leupeptin was also added for binding to the low COOH density surfaces. 88, 22, 5.5, and 0 μM leupeptin dihydrochloride solutions in PBS were prepared and were added to the 3.8 nm delta PWV shift trypsin immobilization surfaces. 88 μM leupeptin was also added to no trypsin control wells (N=2). […] The theoretical shift of leupeptin of 1:1 binding on 3.8 nm delta PWV trypsin is […]. The control 88 μM leupeptin with no trypsin immobilization had 12 nm bulk or NSB shift.

[2] = biological target: T1, recombinant human trypsin (Homo sapiens, UniProt P07477); test: Small molecule binding to trypsin-immobilized surface, PWV shift
T1 construct: purchased Polymum Lot#H149L091.1
Method: (§3) Trypsin was tested to determine what other proteins could be successfully immobilized on high-density polymer surfaces. Like above, high-density polymer surfaces were activated by adding 0.34 M EDC/10 mM NHS in water for 10 min, followed by removing the solution. 50 μg/ml trypsin in non-amine containing buffer was added to the wells, and was incubated for up to around 700 min, followed by a wash first with acetic buffer, then PBS. The trypsin was recombinant human protein from Polymum Lot#H149L091.1. The results of trypsin binding over time, as a function of delta PWV, are shown in FIG. 14, as well as an NHS control. 90% of the protein was immobilized within less than 2 hr. Benzamidine was then added for binding to the immobilized trypsin by adding benzamidine at a final concentration of 67 μM in PBS, pH 7.4. Benzamidine has a molecular weight of 120.15, and an expected delta PWV or PWV shift of 36 pm.
as §1, §2

streptavidin = streptavidin (Streptomyces avidinii, UniProt P22629); test: Biotin binding to immobilized streptavidin on PAA surfaces
Method: (§4) In order to immobilize protein to the novel surfaces, the high-density polymer surfaces of Examples 2 and 3 were activated by adding 0.34 M EDC/10 mM NHS in water for 10 min, followed by removing the solution. In an initial test of protein immobilization capability and protein activity following immobilization, biotin binding to immobilized streptavidin was used—20 μL of either 200 μg/ml avidin or streptavidin in a non-amine containing buffer (10 mM acetate buffer, pH 5.0) were added to the surface and incubated for 3 hr, followed by a wash first with the non-amine containing buffer, then PBS. Biotin was then added for binding to the immobilized avidin or streptavidin by using a 20 μL of a biotin solution in PBS to result in a final Biotin concentration of approximately 58 μM (N=4).
(§5) 20 μL of either 0, 50, or 200 μg/ml avidin or streptavidin in a non-amine containing buffer were added to the wells after they were pre-activated for 10 min with EDC/NHS, and incubated for 3 hr. This was then followed by a wash first with the non-amine containing buffer. Biotin was then added for binding to the immobilized avidin or streptavidin by adding 20 μL of a biotin solution in PBS to result in a final Biotin concentration of approximately 58 μM (N=4).

avidin = avidin (Gallus gallus, UniProt P02701); test: Biotin binding to immobilized avidin on PAA surfaces
Method: as §4, §5

[3] = Trypsin immobilization on high-density polymer surfaces, delta PWV; type: binding; settings: for course of immobilization: 10 mM acetate buffer pH 5.0, 3 hr
Method: as §3
Trypsin binding was also measured on both high and low COOH density surfaces. 100 μg of human recombinant trypsin in 10 mM acetate buffer pH 5.0 was immobilized on either a high or low COOH density surface for 3 hr.

[4] = Streptavidin/avidin immobilization on high-density polymer (PAA) surfaces, SWS biosensor PWV shift; type: binding
Method: as §4
The initial test was followed up by reacting different concentrations of avidin or streptavidin with the different high-density polymer surfaces.
as §5

[5] = PAA coated under theta condition, biotin approximately 58 μM
[6] = low COOH density surfaces (versus high)
[7] = PAA 100K, high COOH density surface, coated with 1/6 dilution NHS/EDC (theta condition) compared to the other dilutions
[8] = PAA 100K, low COOH density surface, coated with 1/6 dilution NHS/EDC (theta condition) compared to the other dilutions
[9] = PAA 250K, high COOH density surface, coated with 1/6 and 1/8 dilution NHS/EDC (theta condition) compared to the other dilutions
[10] = PAA 250K, low COOH density surface, coated with 1/6 and 1/8 dilution NHS/EDC (theta condition) compared to the other dilutions

streptavidin, sequence (P22629 25-183, species assumed): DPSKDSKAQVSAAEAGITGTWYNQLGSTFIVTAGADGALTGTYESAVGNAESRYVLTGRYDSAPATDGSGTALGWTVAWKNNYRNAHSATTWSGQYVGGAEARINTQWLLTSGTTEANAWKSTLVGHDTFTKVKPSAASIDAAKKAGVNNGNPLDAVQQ
avidin, sequence (P02701 25-152, species assumed): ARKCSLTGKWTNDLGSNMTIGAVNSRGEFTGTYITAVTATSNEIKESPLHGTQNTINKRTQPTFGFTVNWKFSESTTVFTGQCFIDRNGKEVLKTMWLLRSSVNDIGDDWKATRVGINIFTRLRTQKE

Question: For `CC(=O)N[C@@H](CC(C)C)C(=O)N[C@@H](CC(C)C)C(=O)N[C@H](C=O)CCCNC(=N)N` [leupeptin, leupeptin dihydrochloride], which “bulk or NSB shift” value [1] is on record?
Answer: 12 nm

Question: And the “binding to immobilized trypsin (titration)” value ([2]; 3.8 nm delta PWV trypsin on low COOH density surface)?
Answer: Titration of leupeptin was observed

Question: What about the “binding to immobilized trypsin” value ([2]; 7.2 nm delta PWV trypsin on high COOH density surface) of the same molecule?
Answer: No positive result was observed

Question: What about the “theoretical shift of 1:1 binding” value ([2]; on 3.8 nm delta PWV shift trypsin surface) of the same molecule?
Answer: 66 nm

Question: What does the source list for `O=C(O)CCCC[C@@H]1SC[C@@H]2NC(=O)N[C@@H]21` [Biotin]?
Answer: biotin binding (streptavidin; [5]): higher biotin binding; activity of streptavidin for biotin interaction (streptavidin; [6]): more activity; biotin binding (avidin; [5]): higher biotin binding; activity of avidin for biotin interaction (avidin; [6]): more activity

Question: For `N=C(N)c1ccccc1` [Benzamidine], which “expected delta PWV or PWV shift” value ([2]; benzamidine 67 μM in PBS, pH 7.4) is on record?
Answer: 36 pm

Question: Which “time within which 90% of the protein was immobilized” value ([3]; 50 μg/ml trypsin in non-amine containing buffer) does the source give for trypsin here?
Answer: less than 2 hr

Question: And the “delta PWV of trypsin immobilization” value ([3]; high COOH density surface)?
Answer: 7.2 nm

Question: And the course of immobilization ([3]; high COOH density surface)?
Answer: immobilized rapidly

Question: What about the “delta PWV of trypsin immobilization” value ([3]; low COOH density surface) of the same molecule?
Answer: 3.8 nm

Question: What about the course of immobilization ([3]; low COOH density surface) of the same molecule?
Answer: slow but rising constantly

Question: Which results are given for avidin?
Answer: protein immobilization (PWV) [4, 7]: More avidin was immobilized; protein immobilization (PWV) [4, 8]: More avidin was immobilized; protein immobilization (PWV) [4, 9]: More avidin was immobilized; protein immobilization (PWV) [4, 10]: More avidin was immobilized

Question: With streptavidin as the molecule, how does the “protein immobilization (PWV)” value [4, 7] read?
Answer: More streptavidin was immobilized

Question: What about the “protein immobilization (PWV)” value [4, 8] of the same molecule?
Answer: More streptavidin was immobilized

Question: What about the “protein immobilization (PWV)” value [4, 9] of the same molecule?
Answer: More streptavidin was immobilized

Question: And the “protein immobilization (PWV)” value [4, 10]?
Answer: More streptavidin was immobilized
